Consider four compounds from publication PMC9814587, “Actinomycetes-derived imine reductases with a preference towards bulky amine substrates” (Communications Chemistry, 2022).

Assay [1] deals with IR-G02 (imine reductase from Streptomyces albidoflavus) (Streptomyces albidoflavus). The experiment in a line: crystal structure; apo IR-G02; sitting-drop vapour diffusion at 18 °C; 0.2 M ammonium acetate, 0.1 M Bis-Tris 5.5, 25 % w/v PEG 3350; protein 20 mg ml^-1.
In assay [2] the target is T1, AspRedAm (Aspergillus oryzae, UniProt Q2TW47).
T1 construct: gene AO090010000708; N-terminal His tag, expressed in E. coli BL21(DE3), Ni-NTA purified; dimer
T1 sequence (Q2TW47 1-295): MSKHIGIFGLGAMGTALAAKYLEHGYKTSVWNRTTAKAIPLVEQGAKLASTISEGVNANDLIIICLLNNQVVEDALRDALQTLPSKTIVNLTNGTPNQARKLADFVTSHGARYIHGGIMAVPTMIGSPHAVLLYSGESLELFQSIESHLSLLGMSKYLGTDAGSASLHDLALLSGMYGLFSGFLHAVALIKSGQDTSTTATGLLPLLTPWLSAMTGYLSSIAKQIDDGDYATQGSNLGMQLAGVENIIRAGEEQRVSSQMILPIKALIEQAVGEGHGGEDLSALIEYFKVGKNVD
The experiment in a line: reductive amination, HPLC or LC-MS conversion. It is filed as biochemical. Particulars: 5 mM each, NADP+/GDH/glucose recycling, pH 7.0.

Assay [3] has as its target T2, IR-G02 (Streptomyces albidoflavus, UniProt Z9MF94CC36).
T2 construct: N-terminal His6 tag, expressed in E. coli BL21(DE3), Ni-NTA and SEC purified; homodimer with active site at the interface
T2 sequence (Z9MF94CC36 21-319): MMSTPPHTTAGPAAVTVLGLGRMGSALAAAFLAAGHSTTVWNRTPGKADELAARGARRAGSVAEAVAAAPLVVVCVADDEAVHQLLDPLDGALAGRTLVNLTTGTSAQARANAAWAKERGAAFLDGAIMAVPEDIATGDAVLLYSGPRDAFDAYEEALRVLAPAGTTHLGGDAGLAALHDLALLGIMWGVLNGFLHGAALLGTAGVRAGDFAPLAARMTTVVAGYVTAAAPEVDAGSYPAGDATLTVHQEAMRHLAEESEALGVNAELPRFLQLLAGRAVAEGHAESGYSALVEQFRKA
The experiment in a line: X-ray crystallography. Type of assay: binding. Conditions: co-crystallised with 10 eq NADP+, pH 7.5, 18 °C.

“IR-G02 (imine reductase from Streptomyces albidoflavus) (enzyme)”: the stoichiometry N (in general, a count of units in the complex or per binding partner) in assay [1] came out at 2.

Regarding `NC1CC1` [A, cyclopropylamine], the conversion in assay [2] (amine donor with cyclohexanone) is recorded as greater than 90%.

Regarding `NC(=O)c1ccc[n+]([C@@H]2O[C@H](COP(=O)(O)OP(=O)(O)OC[C@H]3O[C@@H](n4cnc5c(N)ncnc54)[C@H](OP(=O)(O)O)[C@@H]3O)[C@@H](O)[C@H]2O)c1` [NADP^+], the X-ray crystallography entry in assay [3] is “NADP^+ complex of IR-G02 (PDB ID: 7XR5)”.

Turning to `O=C1CCCCC1` [compound 1, cyclohexanone], the conversion in assay [2] (carbonyl donor with cyclopropylamine) is given as greater than 90%.
